Patent US6737383B1, “Herbicidal oxadiazolidines” (priority 1999, dated 2004)

What was measured:
[1] = test system: bedstraw; assay: Test B pre/postemergence bedstraw; type: in vivo, Galium aparine; conditions: Preemergence; for Plant response rating, Bedstraw: Rate 125 g/ha
In short: (§1)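 Response is a visual 0-to-10 score relative to untreated plants, where 0 means no effect and 10 means complete control, taken twelve to sixteen days after application. Treatments went onto soil at planting and onto foliage of 1- to 4-leaf plants, using a surfactant-containing non-phytotoxic solvent.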

[2] = test system: blackgrass; assay: Test B pre/postemergence blackgrass; type: in vivo, Alopecurus myosuroides; conditions: Preemergence; for Plant response rating, Blackgrass: Rate 125 g/ha
In short: as §1

[3] = test system: surinam grass; assay: Test B pre/postemergence surinam grass; type: in vivo, Brachiaria decumbens; conditions: Preemergence; for Plant response rating, B. signalgrass: Rate 125 g/ha
In short: as §1

[4] = test system: cocklebur; assay: Test B pre/postemergence cocklebur; type: in vivo, Xanthium strumarium; conditions: Preemergence; for Plant response rating, Cocklebur: Rate 125 g/ha
In short: as §1

[5] = test system: corn; assay: Test B pre/postemergence corn; type: in vivo, Zea mays; conditions: Preemergence; for Plant response rating, Corn: Rate 125 g/ha
In short: as §1

[6] = test system: crabgrass; assay: Test B pre/postemergence crabgrass; type: in vivo, Digitaria sanguinalis; conditions: Preemergence; for Plant response rating, Crabgrass: Rate 125 g/ha
In short: as §1

[7] = test system: giant foxtail; assay: Test B pre/postemergence giant foxtail; type: in vivo, Setaria faberii; conditions: Preemergence; for Plant response rating, Giant foxtail: Rate 125 g/ha
In short: as §1

[8] = test system: morningglory; assay: Test B pre/postemergence morningglory; type: in vivo, Ipomoea hederacea; conditions: Preemergence; for Plant response rating, Morningglory: Rate 125 g/ha
In short: as §1

[9] = test system: pigweed; assay: Test B pre/postemergence pigweed; type: in vivo, Amaranthus retroflexus; conditions: Preemergence; for Plant response rating, Redroot pigweed: Rate 125 g/ha
In short: as §1

[10] = test system: rape; assay: Test B pre/postemergence rape; type: in vivo, Brassica napus; conditions: Preemergence; for Plant response rating, Rape: Rate 125 g/ha
In short: as §1

[11] = test system: soybean; assay: Test B pre/postemergence soybean; type: in vivo, Glycine max; conditions: Preemergence; for Plant response rating, Soybean: Rate 125 g/ha
In short: as §1

[12] = test system: sugar beet; assay: Test B pre/postemergence sugar beet; type: in vivo, Beta vulgaris; conditions: Preemergence; for Plant response rating, Sugarbeets: Rate 125 g/ha
In short: as §1

[13] = test system: velvetleaf; assay: Test B pre/postemergence velvetleaf; type: in vivo, Abutilon theophrasti; conditions: Preemergence; for Plant response rating, Velvetleaf: Rate 125 g/ha
In short: as §1

[14] = test system: wheat; assay: Test B pre/postemergence wheat; type: in vivo, Triticum aestivum; conditions: Preemergence; for Plant response rating, Wheat: Rate 125 g/ha
In short: as §1

[15] = test system: wild oat; assay: Test B pre/postemergence wild oat; type: in vivo, Avena fatua; conditions: Preemergence; for Plant response rating, Wild oats: Rate 125 g/ha
In short: as §1

[16] = test system: purple nutsedge; assay: Test B pre/postemergence purple nutsedge; type: in vivo, Cyperus rotundus; conditions: Preemergence
In short: as §1

[17] = Rate 31 g/ha, visual rating, scale 0 to 10 (0 no effect, 10 complete control)
[18] = Rate 62 g/ha, scale of 0 to 10 where 0 is no effect and 10 is complete control
[19] = scale of 0 to 10 where 0 is no effect and 10 is complete control
[20] = Rate 250 g/ha, scale 0 (no effect) to 10 (complete control)
[21] = Rate 500 g/ha, scale 0 to 10 (0 no effect, 10 complete control)

CC(C)N(C(=O)n1oc(=O)n(Cc2nnc(-c3ccccc3)o2)c1=O)c1ccccc1 [Compound 716]
Bedstraw plant response rating [1, 17]: 0
Bedstraw plant response rating [1, 18]: 0
Plant response rating, Bedstraw [1, 19]: 0
Bedstraw plant response rating [1, 20]: 0
Blackgrass plant response rating [2, 17]: 0
Blackgrass plant response rating [2, 18]: 0
Plant response rating, Blackgrass [2, 19]: 0
Blackgrass plant response rating [2, 20]: 0
B. signalgrass plant response rating [3, 17]: 0
B. signalgrass plant response rating [3, 18]: 0
Plant response rating, B. signalgrass [3, 19]: 0
B. signalgrass plant response rating [3, 20]: 0
Cocklebur plant response rating [4, 17]: 0
Cocklebur plant response rating [4, 18]: 0
Plant response rating, Cocklebur [4, 19]: 0
Cocklebur plant response rating [4, 20]: 0
Corn plant response rating [5, 17]: 0
Corn plant response rating [5, 18]: 0
Plant response rating, Corn [5, 19]: 0
Corn plant response rating [5, 20]: 0
Crabgrass plant response rating [6, 17]: 0
Crabgrass plant response rating [6, 18]: 0
Plant response rating, Crabgrass [6, 19]: 0
Crabgrass plant response rating [6, 20]: 0
Giant foxtail plant response rating [7, 17]: 0
Giant foxtail plant response rating [7, 18]: 0
Plant response rating, Giant foxtail [7, 19]: 0
Giant foxtail plant response rating [7, 20]: 0
Morningglory plant response rating [8, 18]: 0
Plant response rating, Morningglory [8, 19]: 0
Morningglory plant response rating [8, 20]: 0
Redroot pigweed plant response rating [9, 18]: 0
Plant response rating, Redroot pigweed [9, 19]: 0
Redroot pigweed plant response rating [9, 20]: 0
Rape plant response rating [10, 18]: 0
Plant response rating, Rape [10, 19]: 0
Rape plant response rating [10, 20]: 0
Soybean plant response rating [11, 18]: 0
Plant response rating, Soybean [11, 19]: 0
Soybean plant response rating [11, 20]: 0
Sugarbeets plant response rating [12, 18]: 0
Plant response rating, Sugarbeets [12, 19]: 0
Sugarbeets plant response rating [12, 20]: 0
Velvetleaf plant response rating [13, 18]: 0
Plant response rating, Velvetleaf [13, 19]: 0
Velvetleaf plant response rating [13, 20]: 0
Wheat plant response rating [14, 18]: 0
Plant response rating, Wheat [14, 19]: 0
Wheat plant response rating [14, 20]: 0
Wild oats plant response rating [15, 18]: 0
Plant response rating, Wild oats [15, 19]: 0
Wild oats plant response rating [15, 20]: 0
Nutsedge plant response rating [16, 18]: 0
Plant response rating, Nutsedge ([16]; Rate 125 g/ha, scale of 0 to 10 where 0 is no effect and 10 is complete control): 0

C=C(Cn1c(=O)on(C(=O)N(c2ccc(F)cc2)C(C)C)c1=O)C(=O)OC [Compound 732]
Bedstraw plant response rating [1, 18]: 0
Plant response rating, Bedstraw [1, 19]: 0
Bedstraw plant response rating [1, 20]: 0
Bedstraw plant response rating [1, 21]: 0
Blackgrass plant response rating [2, 18]: 0
Plant response rating, Blackgrass [2, 19]: 0
Blackgrass plant response rating [2, 20]: 0
Blackgrass plant response rating [2, 21]: 0
B. signalgrass plant response rating [3, 18]: 0
Plant response rating, B. signalgrass [3, 19]: 0
B. signalgrass plant response rating [3, 20]: 0
B. signalgrass plant response rating [3, 21]: 0
Cocklebur plant response rating [4, 18]: 0
Plant response rating, Cocklebur [4, 19]: 0
Cocklebur plant response rating [4, 20]: 0
Cocklebur plant response rating [4, 21]: 0
Corn plant response rating [5, 18]: 0
Plant response rating, Corn [5, 19]: 0
Corn plant response rating [5, 20]: 0
Corn plant response rating [5, 21]: 0
Crabgrass plant response rating [6, 18]: 0
Plant response rating, Crabgrass [6, 19]: 0
Crabgrass plant response rating [6, 20]: 0
Crabgrass plant response rating [6, 21]: 0
Giant foxtail plant response rating [7, 18]: 0
Plant response rating, Giant foxtail [7, 19]: 0
Giant foxtail plant response rating [7, 20]: 0
Giant foxtail plant response rating [7, 21]: 0
Morningglory plant response rating [8, 18]: 0
Plant response rating, Morningglory [8, 19]: 0
Morningglory plant response rating [8, 20]: 0
Morningglory plant response rating [8, 21]: 0
Redroot pigweed plant response rating [9, 18]: 0
Plant response rating, Redroot pigweed [9, 19]: 0
Redroot pigweed plant response rating [9, 20]: 0
Redroot pigweed plant response rating [9, 21]: 0
Rape plant response rating [10, 18]: 0
Plant response rating, Rape [10, 19]: 0
Rape plant response rating [10, 20]: 0
Rape plant response rating [10, 21]: 0
Soybean plant response rating [11, 18]: 0
Plant response rating, Soybean [11, 19]: 0
Soybean plant response rating [11, 20]: 0
Soybean plant response rating [11, 21]: 0
Sugarbeets plant response rating [12, 18]: 0
Plant response rating, Sugarbeets [12, 19]: 0
Sugarbeets plant response rating [12, 20]: 0
Sugarbeets plant response rating [12, 21]: 0
Velvetleaf plant response rating [13, 18]: 0
Plant response rating, Velvetleaf [13, 19]: 0
Velvetleaf plant response rating [13, 20]: 0
Velvetleaf plant response rating [13, 21]: 0
Wheat plant response rating [14, 18]: 0
Plant response rating, Wheat [14, 19]: 0
Wheat plant response rating [14, 20]: 0
Wheat plant response rating [14, 21]: 0
Wild oats plant response rating [15, 18]: 0
Plant response rating, Wild oats [15, 19]: 0
Wild oats plant response rating [15, 20]: 0
Wild oats plant response rating [15, 21]: 0
Nutsedge plant response rating [16, 18]: 0
Nutsedge plant response rating [16, 20]: 0
Nutsedge plant response rating [16, 21]: 0

COCC(OC)n1c(=O)on(C(=O)N(c2ccc(F)cc2F)C(C)C)c1=O (centres unmarked) [Compound 738]
Plant response rating, Bedstraw [1, 19]: 0
Bedstraw plant response rating [1, 20]: 0
Bedstraw plant response rating ([1]; Rate 62 g/ha, scale 0 to 10): 0
Bedstraw plant response rating [1, 21]: 0
Plant response rating, Blackgrass [2, 19]: 10
Blackgrass plant response rating [2, 20]: 10
Blackgrass plant response rating ([2]; Rate 62 g/ha, scale 0 to 10): 8
Blackgrass plant response rating [2, 21]: 10
B. signalgrass plant response rating [3, 18]: 6
Plant response rating, B. signalgrass [3, 19]: 9
B. signalgrass plant response rating [3, 20]: 10
B. signalgrass plant response rating [3, 21]: 10
Plant response rating, Cocklebur [4, 19]: 0
Cocklebur plant response rating [4, 20]: 0
Cocklebur plant response rating ([4]; Rate 62 g/ha, scale 0 to 10): 0
Cocklebur plant response rating [4, 21]: 0
Plant response rating, Corn [5, 19]: 4
Corn plant response rating [5, 20]: 7
Corn plant response rating ([5]; Rate 62 g/ha, scale 0 to 10): 0
Corn plant response rating [5, 21]: 9
Plant response rating, Crabgrass [6, 19]: 9
Crabgrass plant response rating [6, 20]: 9
Crabgrass plant response rating ([6]; Rate 62 g/ha, scale 0 to 10): 8
Crabgrass plant response rating [6, 21]: 10
Plant response rating, Giant foxtail [7, 19]: 9
Giant foxtail plant response rating [7, 20]: 10
Giant foxtail plant response rating ([7]; Rate 62 g/ha, scale 0 to 10): 8
Giant foxtail plant response rating [7, 21]: 10
Plant response rating, Morningglory [8, 19]: 1
Morningglory plant response rating [8, 20]: 2
Morningglory plant response rating ([8]; Rate 62 g/ha, scale 0 to 10): 1
Morningglory plant response rating [8, 21]: 4
Plant response rating, Redroot pigweed [9, 19]: 7
Redroot pigweed plant response rating [9, 20]: 8
Redroot pigweed plant response rating ([9]; Rate 62 g/ha, scale 0 to 10): 6
Redroot pigweed plant response rating [9, 21]: 8
Plant response rating, Rape [10, 19]: 5
Rape plant response rating [10, 20]: 6
Rape plant response rating ([10]; Rate 62 g/ha, scale 0 to 10): 2
Rape plant response rating [10, 21]: 8
Plant response rating, Soybean [11, 19]: 0
Soybean plant response rating [11, 20]: 0
Soybean plant response rating ([11]; Rate 62 g/ha, scale 0 to 10): 0
Soybean plant response rating [11, 21]: 0
Plant response rating, Sugarbeets [12, 19]: 6
Sugarbeets plant response rating [12, 20]: 6
Sugarbeets plant response rating ([12]; Rate 62 g/ha, scale 0 to 10): 3
Sugarbeets plant response rating [12, 21]: 8
Plant response rating, Velvetleaf [13, 19]: 1
Velvetleaf plant response rating [13, 20]: 6
Velvetleaf plant response rating ([13]; Rate 62 g/ha, scale 0 to 10): 0
Velvetleaf plant response rating [13, 21]: 8
Plant response rating, Wheat [14, 19]: 4
Wheat plant response rating [14, 20]: 5
Wheat plant response rating ([14]; Rate 62 g/ha, scale 0 to 10): 2
Wheat plant response rating [14, 21]: 8
Plant response rating, Wild oats [15, 19]: 9
Wild oats plant response rating [15, 20]: 10
Wild oats plant response rating ([15]; Rate 62 g/ha, scale 0 to 10): 4
Wild oats plant response rating [15, 21]: 10
Nutsedge plant response rating [16, 20]: 4
Nutsedge plant response rating [16, 21]: 8
